Active and inactive are the calls of the source. No cut-off for these calls is given here.
What was measured:
[1] = system: HEK-293T; assay: Antiproliferative activity against HEK293T cells with high HGPRT expression incubated for 48 hrs by CellTiter-Glo2 assay; assay type: functional, cell-based; details: Homo sapiens
[2] = system: K562; assay: Antiproliferative activity against human K562 cells with low HGPRT expression incubated for 48 hrs by CellTiter-Glo2 assay; assay type: functional, cell-based; details: K562, 48 h
[3] = system: THP-1; assay: Antiproliferative activity against human THP-1 cells with low HGPRT expression incubated for 48 hrs by CellTiter-Glo2 assay; assay type: functional, cell-based; details: THP-1, 48 h
[4] = system: SK-BR-3; assay: Antiproliferative activity against human SK-BR-3 cells with low HGPRT expression incubated for 48 hrs by CellTiter-Glo2 assay; assay type: functional, cell-based; details: SK-BR-3, 48 h
[5] = system: HEK-293T; assay: Effect on p21 mRNA expression in HEK293T cells assessed as increase in labeling efficiency at 100 uM incubated for 16 hrs and measured by TUC-Seq DUAL method; assay type: functional, cell-based; details: Homo sapiens
[6] = system: K562; assay: Antiproliferative activity against human K562 cells with low HGPRT expression assessed as cell survival at 1000 uM and incubated for 48 hrs by CellTiter-Glo2 assay; assay type: functional; details: read-out: Activity
[7] = system: SK-BR-3; assay: Drug resistance of human SK-BR-3 cells assessed as percentage of resistant cells at 1 mM; assay type: functional
[8] = system: K562; assay: Downregulation of HGPRT mRNA expression in human K562 cells at 1 mM measured after 48 hrs by qPCR analysis; assay type: functional, cell-based
[9] = system: SK-BR-3; assay: Downregulation of HGPRT mRNA expression in human SK-BR-3 cells at 1 mM measured after 48 hrs by qPCR analysis; assay type: functional, cell-based
[10] = Effect on CCNT1 mRNA expression in HEK293T cells assessed as percentage of labeled transcripts at 100 uM incubated for 2 hrs and measured by TUC-Seq DUAL method; assay type: functional, Homo sapiens, HEK-293T
[11] = Effect on p21 mRNA expression in HEK293T cells assessed as percentage of labeled transcripts at 100 uM incubated for 2 hrs and measured by TUC-Seq DUAL method; assay type: functional, Homo sapiens, HEK-293T
[12] = Effect on ND1 mRNA expression in HEK293T cells assessed as percentage of labeled transcripts at 100 uM incubated for 2 hrs and measured by TUC-Seq DUAL method; assay type: functional, Homo sapiens, HEK-293T

| Structure (SMILES) | EC50 [1] [µM] | EC50 [2] [µM] | EC50 [3] [µM] | EC50 [4] [µM] | Activity [5] | viability at 1000 µM [6] [%] | Activity [7] [%] | Activity [8] | Activity [9] | Activity [10] [%] | Activity [11] [%] | Activity [12] [%] |
| --- | --- | --- | --- | --- | --- | --- | --- | --- | --- | --- | --- | --- |
| CC(=O)Oc1ccc(COP(=O)(O)OC[C@H]2O[C@@H](n3cnc4c(=S)[nH]c(N)nc43)[C@H](O)[C@@H]2O)cc1 | 6.9 | 2.3 | 0.67 | 201 | Active |  |  |  |  |  |  |  |
| Nc1nc2c(ncn2[C@@H]2O[C@H](COP3(=O)OCc4cc(Cl)ccc4O3)[C@@H](O)[C@H]2O)c(=S)[nH]1 (some centres not stated) | 15 | 5.6 | 0.4 | 42 | Active |  |  |  |  |  |  |  |
| Nc1nc2c(ncn2[C@@H]2O[C@H](COP3(=O)OCc4ccccc4O3)[C@@H](O)[C@H]2O)c(=S)[nH]1 (some centres not stated) | 14 | 7.2 | 1.4 | 25 | Active |  |  |  |  |  |  |  |
| Nc1nc2[nH]cnc2c(=S)[nH]1 [THIOGUANINE] | 3.6 | 0.74 | 0.27 |  |  | 15 | 40 | Active | Active |  |  |  |
| CC(=O)Oc1ccc(COP(=O)(OCc2ccc(OC(C)=O)cc2)OC[C@H]2O[C@@H](n3cnc4c(SCc5ccc(OC(C)=O)cc5)nc(N)nc43)[C@H](O)[C@@H]2O)cc1 | 6.7 | 2.6 | 0.34 | 3.5 |  |  |  |  |  |  |  |  |
| CC(C)(C)C(=O)SCCOP(=O)(OCCSC(=O)C(C)(C)C)OC[C@H]1O[C@@H](n2cnc3c(=S)[nH]c(N)nc32)[C@H](O)[C@@H]1O | 246 | 62 | 8.4 |  |  |  |  |  |  |  |  |  |
| Nc1nc(=S)c2ncn([C@@H]3O[C@H](CO)[C@@H](O)[C@H]3O)c2[nH]1 [THIOGUANOSINE] | 4.7 | 1.3 | 0.35 |  |  |  |  |  |  | 2.5 | 2.5 | 2.5 |
| CCC(CC)COC(=O)[C@H](C)NP(=O)(OC[C@H]1O[C@@H](n2cnc3c(=S)[nH]c(N)nc32)[C@H](O)[C@@H]1O)Oc1ccccc1 (some centres not stated) |  | 92 | 33 |  |  |  |  |  |  |  |  |  |
